Article PMC10706821, “Folate-Appended Hydroxypropyl-β-Cyclodextrin Induces Autophagic Cell Death in Acute Myeloid Leukemia Cells” (International Journal of Molecular Sciences, 2023)

Experiments:
[1] = system: HL-60; test: modified MTT assay (Cell Counting Kit-8), cell proliferation; format: cell-based, human
Method: (§1) The trypan blue dye exclusion method was used to evaluate cell viability. Cells (HL-60, THP1, SKM1 and Kasumi1 cells) were seeded in flat-bottomed 96-well plates at a density of 1 × 10^4 cells in 100 µL medium per well and incubated with FA-HP-β-CyD (0, 0,1, 0.25, 0.5, 0.75, 1 mM) or HP-β-CyD (0, 1, 2.5, 5, 10 mM) for 72 h. Then, viable cells were counted. Cell proliferation was evaluated by a modified MTT assay using Cell Counting Kit-8 (Dojindo Molecular Technologies, Kumamoto, Japan), as previously described. AML cells were cultured in 96-well plates at a density of 1 × 10^4 cells in 100 µL medium per well and incubated with FA-HP-β-CyD or HP-β-CyD for 72 h. The half-maximal inhibitory concentration values (IC50) were determined by non-linear regression using CalcuSyn software version 1.1.1 (Biosoft, Cambridge, UK), as previously described. After obtaining IC50 values for each agent, the antileukemic activity of FA-HP-β-CyD plus cytosine arabinoside (Ara-C) or Venetoclax was evaluated, as previously described. […] CalcuSyn was used to calculate the fraction affected (Fa, in which a value of 0.25 indicates […]) and the CI. This method is capable of quantifying synergistic (CI < 1) and antagonistic (CI > 1) effects at different dose and effect levels.

[2] = system: SKM-1; test: as above; format: cell-based, human
Method: as §1

[3] = system: THP-1; test: as above; format: cell-based, human
Method: as §1

[4] = system: HL-60 cells; test: AML xenograft survival model; format: in vivo, BALB/c Rag-2/JAK3 double-deficient (BRJ) mice; conditions: HL-60 xenograft, 20 days; for Median Survival Time: HP-β-CyD 2086.5 mg/kg i.p. twice a day, FA-HP-β-CyD 249 mg/kg i.p. twice a day, n = 6
Method: (§2) BALB/c Rag-2/JAK3 double-deficient (BRJ) mice were housed in a specific pathogen-free barrier facility and used for the xenograft transplantation experiments. All animal experiments were approved by the Institutional Review Board of Saga University and conducted in accordance with the institutional guidelines of animal care of Saga University.
(§3) HL-60 cells or THP-1 cells were injected intravenously into BRJ mice. After 72 h, mice were injected intraperitoneally with 200 μL of vehicle, FA-HP-β-CyD (15 mM, 249 mg/kg), or HP-β-CyD (150 mM, 2086.5 mg/kg) for 20 consecutive days, and survival was monitored daily. Ara-C (100 mg/kg) was injected intraperitoneally for 5 consecutive days from 72 h after transplantation. Venetoclax (25 mg/kg) was orally administered for 20 consecutive days from 72 h after transplantation. Chimerism of human leukemic cells in the BM was determined by flow cytometry after double staining with FITC-conjugated anti-human CD45 (BD Bioscience) and PE/Cy7-conjugated anti-mouse CD45 (BioLegend) antibodies. All surgery was performed under sodium pentobarbital anesthesia to minimize pain. Mice were euthanized with ether when they became moribund or were unable to obtain food or water, as recommended by Saga University institutional guidelines. Survival data were analyzed using a log-rank nonparametric test and presented as Kaplan–Meier survival curves (n = 6 for each group).

[5] = system: THP1 cells; test: AML xenograft survival model; format: in vivo, BALB/c Rag-2/JAK3 double-deficient (BRJ) mice; conditions: 20 days; for Median Survival Time: Figure 7B, HP-β-CyD 2086.5 mg/kg i.p. twice a day, FA-HP-β-CyD 249 mg/kg i.p. twice a day, Ara-C 100 mg/kg i.p., n = 6
Method: as §2, §3

[6] = system: Kasumi-1; test: modified MTT assay (Cell Counting Kit-8), cell proliferation; format: cell-based, human; conditions: Kasumi-1, 72 h
Method: (§4) The trypan blue dye exclusion method was used to evaluate cell viability. Cells (HL-60, THP1, SKM1 and Kasumi1 cells) were seeded in flat-bottomed 96-well plates at a density of 1 × 10^4 cells in 100 µL medium per well and incubated with FA-HP-β-CyD (0, 0,1, 0.25, 0.5, 0.75, 1 mM) or HP-β-CyD (0, 1, 2.5, 5, 10 mM) for 72 h. Then, viable cells were counted. Cell proliferation was evaluated by a modified MTT assay using Cell Counting Kit-8 (Dojindo Molecular Technologies, Kumamoto, Japan), as previously described. AML cells were cultured in 96-well plates at a density of 1 × 10^4 cells in 100 µL medium per well and incubated with FA-HP-β-CyD or HP-β-CyD for 72 h. […] This method is capable of quantifying synergistic (CI < 1) and antagonistic (CI > 1) effects at different dose and effect levels.

[7] = system: AML cell lines; test: trypan blue dye exclusion, cell viability; format: cell-based, human; conditions: 72 h; FA-HP-β-CyD up to 1 mM, HP-β-CyD up to 10 mM
Method: as §4

[8] = system: AML cell lines; test: Annexin V and PI staining, statements over all AML cell lines; format: cell-based, human; conditions: four AML cell lines, 72 h
Method: PI and Annexin V (BD Biosciences, San Jose, CA, USA) staining was performed to assess apoptosis, as previously described [53]. Cells were filtered through nylon mesh and assessed using a FACSVerse flow cytometer (BD Biosciences). Data were analyzed using FlowJo software 10.8.2 (Tree Star, Inc., Ashland, OR, USA).

[9] = system: HL-60; test: cell cycle analysis (PI, flow cytometry); format: cell-based, human; conditions: HL-60, 24 h
Method: (§5) Cell cycle analyses of AML cell lines (HL-60, THP1, SKM1, and Kasumi1 cells) were performed as described previously. In brief, 1 × 10^6 cells were treated with the indicated concentrations of CyDs. After 24 h of CyD treatment, cells were collected and fixed with 70% ethanol. Cells were then incubated at room temperature for 30 min with 0.1% Triton X-100/0.5% RNase A and stained with 50 μg/mL PI (BD Biosciences, San Jose, CA, USA). Cellular DNA content was analyzed by flow cytometry, and cell cycle profiles were determined in a FACS CantoII flow cytometer with CellQuest software (version 1.0.6, BD Biosciences).

[10] = system: Kasumi1; test: cell cycle analysis (PI, flow cytometry); format: cell-based, human; conditions: Kasumi1, 24 h
Method: as §5

[11] = system: SKM1; test: cell cycle analysis (PI, flow cytometry); format: cell-based, human; conditions: SKM1
Method: as §5

[12] = system: THP1; test: cell cycle analysis (PI, flow cytometry); format: cell-based, human; conditions: THP1, 24 h
Method: as §5

[13] = system: HL-60; test: autophagosome formation (DAPGreen); format: cell-based, human; conditions: HL-60, 1 or 10 mM, 2 h
Method: (§6) Autophagosome formation was evaluated using the DAPGreen-Autophagy Detection Kit (Dojindo Molecular Technologies). HL-60 and THP1 cells were cultured overnight in 6-well plates at a density of 5 × 10^5 or 1 × 10^6 cells. The cells were then washed once with culture medium and incubated with DAPGreen working solution at 37 °C for 30 min. After the cells were washed twice, CyDs (1 mM, 10 mM) were added to the wells and incubated for 2 h. The samples were analyzed using a flow cytometer (FACS Canto II) or a fluorescence microscope (Carl Zeiss, Jena, Germany).

[14] = system: THP1; test: autophagosome formation (DAPGreen); format: cell-based, human; conditions: THP1, 1 or 10 mM, 2 h
Method: as §6

[15] = system: HL-60; test: cell viability with autophagy inhibitors (Cell Counting Kit-8); format: cell-based, human; conditions: 1 mM FA-HP-β-CyD or 10 mM HP-β-CyD, chloroquine 20 μM, LY294002 50 μM, bafilomycin A1 1 nM
Method: (§7) HL-60 and THP1 cells (2 × 10^5 cells in 100 µL of RPMI-1640 medium per well) were seeded in flat-bottomed 96-well plates (Greiner Labortechnik, Hamburg, Germany) and treated with both 1 mM of FA-HP-β-CyD and 10 mM of HP-β-CyD at 37 °C for 2 h. The cells were then pretreated for 24 h with the autophagy inhibitors chloroquine (20 µM), LY294002 (50 μM; Fujifilm Wako Pure Chemicals Co., Ltd., Osaka, Japan), or bafilomycin A1 (1 nM; Funakoshi, Tokyo, Japan). Cell proliferation was assessed using Cell Counting Kit-8.

[16] = system: THP1; test: as above; format: cell-based, human; conditions: 1 mM FA-HP-β-CyD or 10 mM HP-β-CyD, chloroquine 20 μM, LY294002 50 μM, bafilomycin A1 1 nM
Method: as §7

[17] = mouse, in vivo, ip
Method: At 24 h after the first injection, and at 8 days after the last of seven repeat injections, peripheral blood was collected from the tail vein and analyzed by an automated blood cell counter (Celltacα MEK-6500; NIHON KOHDEN, Tokyo, Japan). Data are presented as the mean ± SEM of three independent experiments.

[18] = Figure 7A, Ara-C 100 mg/kg i.p.
[19] = Figure 7C, Venetoclax 25 mg/kg oral gavage daily

## Nc1ccn([C@@H]2O[C@H](CO)[C@@H](O)[C@@H]2O)c(=O)n1 [Ara-C, cytarabine]
[1]; Homo sapiens, HL-60
  IC50: 0.495 µM
[2]; Homo sapiens, SKM-1, SKM1
  IC50: 0.6 µM
[3]; Homo sapiens, THP-1, THP1
  IC50: 7.19 µM
[4]; [18]
  Median Survival Time: 34 days
[5]
  Median Survival Time: 45.5 days

## folate-conjugated HP-β-CyD [FA-HP-β-CyD]
[1]; HL-60, 72 h
  IC50: 620 µM
[2]; SKM-1, 72 h
  IC50: 200 µM
[3]; THP-1, 72 h
  IC50: 320 µM
[6]
  IC50: 300 µM
[7]
  cell viability (trypan blue): reduced the cell viability of the AML cell lines in a dose-dependent manner
[8]
  apoptosis induction: triggered early apoptosis in four AML cell lines in a dose-dependent manner
[9]
  effect on cell cycle status: no alteration in cell cycle status
[10]
  effect on cell cycle status: no alteration in cell cycle status
[11]
  effect on cell cycle status (predicted, no experimental data): no change in the cell cycle status was predicted
[12]
  effect on cell cycle status: no alteration in cell cycle status
[13]
  number of autophagic vacuoles (DAPGreen fluorescence): increased
[14]
  number of autophagic vacuoles (DAPGreen fluorescence): increased
[15]
  viability in the presence of autophagy inhibitors vs CyD alone: higher than that in the presence of FA-HP-β-CyD alone
[16]
  viability in the presence of autophagy inhibitors vs CyD alone: higher than that in the presence of FA-HP-β-CyD alone
[4]; [18]
  Median Survival Time: 38 days
[4]; [19]
  Median Survival Time: 35 days
[4]; 249 mg/kg i.p. b.i.d.
  survival compared with vehicle-injected mice: survived significantly longer
[5]; 249 mg/kg i.p. b.i.d.
  survival compared with vehicle-injected mice: survived significantly longer
[5]
  Median Survival Time: 50.5 days
[17]
  adverse effects on white blood cell counts, hemoglobin concentrations, platelet counts: no adverse effects

## CC1(C)CCC(CN2CCN(c3ccc(C(=O)NS(=O)(=O)c4ccc(NCC5CCOCC5)c([N+](=O)[O-])c4)c(Oc4cnc5[nH]ccc5c4)c3)CC2)=C(c2ccc(Cl)cc2)C1 [Venetoclax]
[1]; Homo sapiens, HL-60
  IC50: 0.0503 µM
[2]; Homo sapiens, SKM-1, SKM1
  IC50: 1.1 µM
[3]; Homo sapiens, THP-1, THP1
  IC50: 0.442 µM
[4]; [19]
  Median Survival Time: 36 days
